These results are taken from ChEMBL document CHEMBL1136812, “Structure-activity relationships of dimethindene derivatives as new M2-selective muscarinic receptor antagonists” (J Med Chem, 2003).

Common to all, as to assay type: cell-based
Test [1] addresses T1, Muscarinic acetylcholine receptor M2 (Homo sapiens, UniProt P08172).
T1 sequence (P08172 whole entry): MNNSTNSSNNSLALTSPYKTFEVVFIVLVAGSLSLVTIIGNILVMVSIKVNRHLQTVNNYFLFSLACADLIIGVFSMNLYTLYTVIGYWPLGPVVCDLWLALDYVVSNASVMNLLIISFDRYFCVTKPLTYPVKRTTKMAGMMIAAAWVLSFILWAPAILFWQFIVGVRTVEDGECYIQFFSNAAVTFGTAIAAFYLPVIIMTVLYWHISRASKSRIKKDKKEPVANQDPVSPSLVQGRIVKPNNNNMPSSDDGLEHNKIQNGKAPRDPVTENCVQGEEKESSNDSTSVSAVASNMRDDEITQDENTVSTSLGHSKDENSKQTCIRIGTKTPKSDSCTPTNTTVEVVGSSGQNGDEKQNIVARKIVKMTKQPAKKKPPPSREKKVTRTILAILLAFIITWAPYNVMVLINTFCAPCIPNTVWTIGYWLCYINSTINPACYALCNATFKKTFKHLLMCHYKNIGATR
As to the kind of experiment: Binding affinity towards cloned human muscarinic acetylcholine receptor M2 stably expressed in CHO-K1 cells using [3H]N-methylscopolamine.

Test [2] concerns the target T2, Muscarinic acetylcholine receptor M1 (Homo sapiens, UniProt P11229).
T2 sequence (P11229 whole entry): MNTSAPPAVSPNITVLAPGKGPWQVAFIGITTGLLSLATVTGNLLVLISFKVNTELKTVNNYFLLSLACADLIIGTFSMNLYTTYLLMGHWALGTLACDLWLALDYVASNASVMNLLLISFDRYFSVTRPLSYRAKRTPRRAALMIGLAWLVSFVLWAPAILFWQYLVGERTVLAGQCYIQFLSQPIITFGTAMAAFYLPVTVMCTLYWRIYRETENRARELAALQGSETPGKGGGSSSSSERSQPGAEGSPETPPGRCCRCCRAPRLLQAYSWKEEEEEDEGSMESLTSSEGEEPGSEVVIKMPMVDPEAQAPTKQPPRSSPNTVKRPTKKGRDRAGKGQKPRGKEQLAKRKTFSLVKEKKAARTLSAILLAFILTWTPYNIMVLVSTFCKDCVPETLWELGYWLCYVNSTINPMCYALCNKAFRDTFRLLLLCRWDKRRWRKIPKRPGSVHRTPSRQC
Nature of the test: Binding affinity towards cloned human muscarinic acetylcholine receptor M1 stably expressed in CHO-K1 cells using [3H]N-methylscopolamine.

The target in test [3] is T3, Muscarinic acetylcholine receptor M4 (Homo sapiens, UniProt P08173).
T3 sequence (P08173 whole entry): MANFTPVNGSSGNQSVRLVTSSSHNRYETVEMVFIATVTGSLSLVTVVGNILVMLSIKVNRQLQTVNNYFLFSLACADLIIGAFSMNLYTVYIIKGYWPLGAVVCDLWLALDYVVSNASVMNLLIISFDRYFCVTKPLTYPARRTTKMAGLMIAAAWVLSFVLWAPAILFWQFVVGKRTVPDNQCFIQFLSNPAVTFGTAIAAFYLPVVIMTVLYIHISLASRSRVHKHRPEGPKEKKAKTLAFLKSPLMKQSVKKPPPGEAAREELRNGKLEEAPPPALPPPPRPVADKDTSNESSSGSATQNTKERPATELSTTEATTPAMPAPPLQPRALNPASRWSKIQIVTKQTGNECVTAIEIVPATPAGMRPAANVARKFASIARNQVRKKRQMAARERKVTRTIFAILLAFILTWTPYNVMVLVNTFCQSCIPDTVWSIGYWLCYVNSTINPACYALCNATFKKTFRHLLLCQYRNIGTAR
Nature of the test: Binding affinity towards cloned human muscarinic acetylcholine receptor M4 stably expressed in CHO-K1 cells using [3H]N-methylscopolamine.

Test [4] addresses T4, Muscarinic acetylcholine receptor M5 (Homo sapiens, UniProt P08912).
T4 sequence (P08912 whole entry): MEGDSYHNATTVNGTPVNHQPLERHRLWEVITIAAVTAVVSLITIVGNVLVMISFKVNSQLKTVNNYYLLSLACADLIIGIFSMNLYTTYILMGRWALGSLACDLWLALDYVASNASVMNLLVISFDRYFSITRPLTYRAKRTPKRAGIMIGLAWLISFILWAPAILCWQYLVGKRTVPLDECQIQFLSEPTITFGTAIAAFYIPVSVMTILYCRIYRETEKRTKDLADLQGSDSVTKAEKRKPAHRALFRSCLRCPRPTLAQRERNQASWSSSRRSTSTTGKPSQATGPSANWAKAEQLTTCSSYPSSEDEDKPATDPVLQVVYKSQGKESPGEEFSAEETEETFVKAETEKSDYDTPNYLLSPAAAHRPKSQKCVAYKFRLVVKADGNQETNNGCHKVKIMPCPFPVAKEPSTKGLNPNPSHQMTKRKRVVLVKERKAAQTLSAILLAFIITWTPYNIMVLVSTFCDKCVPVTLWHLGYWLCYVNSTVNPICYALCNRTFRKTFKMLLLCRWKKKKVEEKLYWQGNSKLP
Nature of the test: Binding affinity towards cloned human muscarinic acetylcholine receptor M5 stably expressed in CHO-K1 cells using [3H]N-methylscopolamine.

Test [5] deals with Muscarinic acetylcholine receptor M3 (Homo sapiens, UniProt P20309). As to the kind of experiment: Binding affinity towards cloned human muscarinic acetylcholine receptor M3 stably expressed in CHO-K1 cells using [3H]N-methylscopolamine.

pKi: −log10 of the molar value.

Chain of Muscarinic acetylcholine receptor M3 (P20309 whole entry): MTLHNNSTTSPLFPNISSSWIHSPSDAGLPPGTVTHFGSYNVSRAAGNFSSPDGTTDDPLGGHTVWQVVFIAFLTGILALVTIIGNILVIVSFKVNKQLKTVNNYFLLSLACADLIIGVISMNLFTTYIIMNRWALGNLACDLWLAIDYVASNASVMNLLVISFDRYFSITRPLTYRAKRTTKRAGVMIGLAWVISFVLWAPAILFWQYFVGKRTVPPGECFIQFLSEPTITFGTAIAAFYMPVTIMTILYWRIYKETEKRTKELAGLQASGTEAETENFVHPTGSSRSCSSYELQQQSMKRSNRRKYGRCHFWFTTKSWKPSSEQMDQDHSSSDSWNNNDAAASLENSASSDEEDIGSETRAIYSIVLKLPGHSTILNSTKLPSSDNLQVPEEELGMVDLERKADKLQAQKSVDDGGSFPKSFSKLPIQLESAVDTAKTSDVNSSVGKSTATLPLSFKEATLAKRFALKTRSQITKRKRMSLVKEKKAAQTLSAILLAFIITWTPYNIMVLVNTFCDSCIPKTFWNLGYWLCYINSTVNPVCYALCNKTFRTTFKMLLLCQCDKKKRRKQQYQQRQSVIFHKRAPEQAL

Consider `COc1ccc2c(c1)CC(CCN(C)C)=C2C(C)c1ccccn1` (stereo not given), for which the negative-log Ki (pKi) in test [1] is 5.97; in test [2], 5.81; in test [3] it was 5.38; in test [4], 5.22; in test [5], 5.93.
Take `CN(C)CCNC(=O)C1=C(Cc2ccncc2)c2ccccc2C1`: the pKi is 4.03 in test [1]; 4.27 in test [2]; 4.06 in test [3]; 4.38 in test [4]; 3.87 in test [5].
Taken in the same sequence, the figures for `CCN(CC)CCC1=C(C(C)c2ccccn2)c2ccccc2C1` (stereo not given) were 7.35, 6.35, 6.34, 5.68 and 6.02.
The matching figures for `CC(C1=C(CCN(C)C)Cc2ccc(Cl)cc21)c1ccccn1` (stereo not given): 6.44, 6.46, 6.13, 6.04 and 6.30.
Consider `CC(C1=C(CCCN(C)C)Cc2ccccc21)c1ccccn1` (stereo not given), for which the negative logarithm of the Ki (pKi) in test [1] is 6.58; in test [2], 6.05; in test [3] it was 5.77; in test [4] it was 5.49; in test [5] it was 6.24.
The matching figures for `CN(C)CCC1=C(Cc2ccccn2)c2ccccc2C1`: 6.63, 5.80, 5.62, 5.44 and 5.81.
The matching figures for `CN(C)CCOC(=O)C1=C(Cc2cccnc2)c2ccccc2C1`: 5.22, 5.45, 4.88, 4.95 and 5.09.
Taken in the same sequence, the figures for `CN(C)CCC1=C(Cc2ccncc2)c2ccccc2C1` were 5.17, 5.37, 5.08, 4.99 and 4.93.
Regarding `CCCC(C1=C(CCN(C)C)Cc2ccccc21)c1ccccn1` (stereo not given), the pKi is 6.17 in test [1]; 6.61 in test [2]; 6.21 in test [3]; 6.52 in test [4]; 6.20 in test [5].
Consider `CC(C1=C(CCN(C)C)Cc2ccccc21)c1ccccc1` (stereo not given), for which the pKi was 6.59 in test [1]; 6.80 in test [2]; 6.43 in test [3]; 6.51 in test [4]; 6.54 in test [5].
As to `CN(C)CCC1=C(C(c2ccccc2)c2ccccn2)c2ccccc2C1` (stereo not given), the pKi was 6.64 in test [1]; 7.36 in test [2]; 6.89 in test [3]; 7.18 in test [4]; 7.17 in test [5].
With `CC(C1=C(CN(C)C(C)C)Cc2ccccc21)c1ccccn1` (stereo not given), the pKi in test [1] was 7.29; in test [2] it was 6.64; in test [3], 6.22; in test [4] it was 5.95; in test [5], 6.13.
Taken in the same sequence, the figures for `CN(C)CCOC(=O)C1=C(Cc2ccccn2)c2ccccc2C1` were 5.31, 5.27, 4.83, 4.76 and 5.05.
Taken in the same sequence, the figures for `COc1ccc2c(c1)C(C(C)c1ccccn1)=C(CCN(C)C)C2` (stereo not given) were 5.99, 5.43, 5.07, 5.05 and 5.50.
Turning to `CSc1ccc2c(c1)C(C(C)c1ccccn1)=C(CCN(C)C)C2` (stereo not given), the negative-log Ki (pKi) in test [1] is 6.04; in test [2] it was 6.06; in test [3], 5.70; in test [4], 5.49; in test [5], 5.98.
The matching figures for `CN(C)CCNC(=O)C1=C(Cc2ccccn2)c2ccccc2C1`: 4.83, 4.79, 4.57, 4.34 and 4.62.
Regarding `Cc1ccc2c(c1)C(C(C)c1ccccn1)=C(CCN(C)C)C2` (stereo not given), the pKi in test [1] is 5.71; in test [2], 5.79; in test [3] it was 5.49; in test [4], 5.23; in test [5], 5.60.
Turning to `CC(C1=C(CCN(C)C)Cc2ccc(F)cc21)c1ccccn1` (stereo not given), the pKi was 6.95 in test [1]; 6.48 in test [2]; 6.19 in test [3]; 5.98 in test [4]; 6.58 in test [5].
Taken in the same sequence, the figures for `CCC(C1=C(CCN(C)C)Cc2cc(Cl)ccc21)c1ccccn1` (stereo not given) were 6.97, 6.65, 6.08, 6.11 and 6.55.
For `CCC(C1=C(CCN(C)C)Cc2ccccc21)c1ccccn1` (stereo not given), the pKi in test [1] was 7.01; in test [2], 6.62; in test [3] it was 6.18; in test [4] it was 6.17; in test [5], 6.51.
The matching figures for `Cc1ccc2c(c1)CC(CCN(C)C)=C2C(C)c1ccccn1` (stereo not given): 6.23, 6.25, 5.85, 5.84 and 6.30.
Taken in the same sequence, the figures for `CC(C1=C(CCN2CCCCC2)Cc2ccccc21)c1ccccn1` (stereo not given) were 6.07, 5.72, 5.72, 5.63 and 5.75.
The matching figures for `CC(C1=C(CCN2CCCC2)Cc2ccccc21)c1ccccn1` (stereo not given): 6.40, 5.98, 5.91, 5.70 and 5.72.
On to `CN(C)CCC1=C(Cc2cccnc2)c2ccccc2C1`, for which the negative-log Ki (pKi) in test [1] was 5.27; in test [2], 5.43; in test [3], 5.13; in test [4] it was 5.10; in test [5], 5.09.
With `CC(C1=C(CCN(C)C(C)C)Cc2ccccc21)c1ccccn1` (stereo not given), the negative logarithm of the Ki (pKi) in test [1] was 6.84; in test [2], 6.06; in test [3] it was 6.00; in test [4] it was 5.66; in test [5] it was 5.74.
The matching figures for `CN(C)CCNC(=O)C1=C(Cc2cccnc2)c2ccccc2C1`: 4.40, 4.31, 4.33, 4.18 and 4.31.
`CC(C1=C(CCN2CCOCC2)Cc2ccccc21)c1ccccn1` (stereo not given): the pKi in test [1] was 5.84; in test [2] it was 5.36; in test [3] it was 5.38; in test [4] it was 5.57; in test [5], 5.56.
Regarding `CN(C)CCC1=C(C(C)(C)c2ccccn2)c2ccccc2C1`, the negative logarithm of the Ki (pKi) in test [1] is 7.81; in test [2], 7.28; in test [3], 7.09; in test [4] it was 6.43; in test [5], 7.59.

Usually pKi stands for the Ki on a negative log10 scale, so that one unit is a factor of ten. A lower pKi goes with a high Ki.
